# US11685741B2, “Fluorescent probes” (University of Massachusetts, priority 2017, dated 2023)
# Values joined by “and” are separate entries in the source; they are usually repeats but may differ in a detail not shown here. Equal entries are not always repeated.
# Assays:
# [1] = test system: primary human fibroblast cells (ws1); assay: Confocal imaging of Fe2+ with Rh6GD in ws1 cells; assay type: cell-based
# Experimental: Human primary fibroblast ws1 cells were grown at 37° C. in a humid atmosphere of 5% CO2 atmosphere in eagle's minimum essential medium (EMEM, ATCC) supplemented with 10% fetal bovine serum (FBS, ATCC). Cultures were divided into 1:2 every 48 h to an approximate cell density of 1.21 million cells/ml and used for experiments after 24 h.
# A Zeiss LSM 710 laser-scanning confocal microscope system was used for cell imaging experiments. 40× oil-immersion objective lens were used to perform all the experiments. For imaging with the Rh6GD sensor, excitation wavelength of the laser was 543 nm and emissions were collected over the range 545-625 nm. For images with MitoTracker Green FM, LysoTracker Deep Red, excitation wavelengths recommended by the manufacturer were 488 nm for MitoTracker, 633 nm for LysoTracker. Emissions were integrated at 492-535 nm (MitoTracker), 650-800 nm (LysoTracker), respectively.
# Ws1 cells, at an approximately density of 1.2 million/ml in complete EMEM medium, were incubated with 100 μM ferrous ammonium sulfate (FAS, Fe (NH4)2(SO4)2 from a 10 mM stock solution) for overnight at 37° C. in a humid atmosphere of 5% CO2 and then the cells were washed with fresh EMEM medium to remove excess Fe^2+. Then cells were incubated with Rh6GD (10 μM, from 500 μM stock solution in DMF) at 37° C. for 30 min and then cells were washed with EMEM media and then imaged. In addition, some cells were treated firstly with 100 μM Fe^2+ overnight and then the cells were washed with fresh EMEM medium. For chelation experiments, Fe^2+-loaded cells or untreated cells were incubated with 1 mM 2,2′-bipyridyl (Bpy) at 37° C. for 30 min, then sensor was added followed by washing with the media, and then imaging was done. Controls were imaged without incubation with Fe^2+ or 2,2′-bipyridyl.
# The ability of Rh6GD to detect Fe^2+ in primary human fibroblast cells (ws1) was investigated by using confocal microscopy. […] For Fe^2+ repleting conditions, live ws1 cells were incubated with 100 μM of ferrous ammonium sulfate (Fe (NH4)2(SO4)2) at 37° C. for overnight followed by washing with EMEM medium to remove excess Fe^2+ and then 10 μM of Rh6GD was added to the culture media and was incubated at 37° C. for 30 min. […] This fluorescent intensity is almost the same as that of cells without Fe^2+ or Bpy treatment (FIG. 34B).
# To explore this, the distribution of exchangeable Fe^2+ pools in live ws1 cells were further investigated using Rh6GD, together with colocalization experiments using other dyes such as MitoTracker Green FM (a green fluorescent dye which localizes to mitochondria in live cells regardless of mitochondrial membrane potential) and LysoTracker Deep Red (a fluorescent dye that stains acidic compartments such as endosomes and lysosomes in live cells). […]
# [2] = Metal ion sensing: UV-vis and fluorescence response to Fe3+ and other metal ions
# Experimental: The spectroscopic properties of Rh-PK and its interactions with various metal ions were evaluated in acetonitrile (ACN)/Tris-HCl buffer (10 mM, pH 7.3, v/v, 3:1). […] The changes in UV-Vis spectra after the addition of various ions are shown in FIG. 2, which is an absorbance spectrum of 100 μM sensor with various metal ions (100 μM for Ni^+2, Cu^+, Cu^+2, Zn^+2, Pb, Fe^+2, Fe^+3, Cr^+3, Hg^+2, Mn^+2, Ag^+, and Co^+2; 200 μM for K^+, Na^+, Ca^2+ and Mg^2+) in the ACN/Tris buffer (10 mM, pH 7.3, v/v 3:1).
# When Fe^3+ was added into the solution of Rh-PK, a significant enhancement of fluorescence (>12-fold with 1.0 equiv of Fe^3+) was observed.
# The interferences from the other metal ions with Rh-PK in its response to Fe^3+ was examined. […] Each of the 12 metal ions was pre-incubated with Rh-PK before 1 equiv. of Fe^3+ was added, the fluorescence response was then measured.
# The stock solution of sensor and metal ions were prepared at the concentration of 1 mM. M. P. Walkees, Mutat. Res., 2003, 533, 107; M. Waisberg, et al., Toxicology, 2003, 192, 95.
# The UV-vis. and fluorescence spectra of RhHPA to various possible interfering metal ions and its selectivity for Fe^3+ were examined. See FIG. 6, which is a plot of absorbance dependent on the concentration of Fe^3+ in the range from 0 to 2 equivalents in ACN/Tris-HCl buffer (10 mM, pH 7.3, v/v 2:1); FIG. 7, which is a Job's plot between Fe^3+ and RhHPA, indicating the 1:1 binding mode for sensor and iron(III). […] Addition of Na^+, K^+, Ca^2+, Mg^2+, Cr^3+, […], Hg^2+, Cu^2+, Pb^2+, Zn^2+, Fe^2+, Co^2+, Ni^2+, and Ag^+ exerted little or no effect on the emission of RhHPA, while remarkable fluorescence enhancement was detected upon the addition of Fe^3+ by excitation of the rhodamine fluorophore at 535 nm.
# Experiments of iron(III) with other metal ions were investigated by means of the fluorescence response of RhHPA toward Fe^3+ in the presence of various other metal ions such as Na^+, K^+, Ca^2+, Mg^2+, Cr^3+, Hg^2+, Cu^2+, Pb^2+, Zn^2+, Fe^2+, Co^2+, Ni^2+, Cd^2+, and Ag^+. […] for Fe^3+ had no changes with addition of other metal ions. Cu(II) and Zn(II) increased the fluorescence intensity slightly.
# [3] = Rh-PK + Fe^3+, ACN/Tris-HCl buffer pH 7.3 v/v 3:1
"Φ [2, 3]","ε of absorption peak at 555 nm [2, 3] [M⁻¹ cm⁻¹]",Structure (SMILES),fluorescence of cells with sensor only ([1]; 10 μM Rh6GD),"fluorescence of cells treated with Fe^2+ then Bpy ([1]; 100 μM Fe^2+ overnight, Bpy, 10 μM Rh6GD, versus Fe^2+ supplement)","fluorescence of Fe^2+-treated cells versus unsupplemented ([1]; 100 μM ferrous ammonium sulfate overnight, then 10 μM Rh6GD 30 min)","fluorescence of Bpy-treated cells ([1]; Bpy, then 10 μM Rh6GD, versus sensor only)","increase in fluorescence emission intensity ([2]; one equivalent Fe^3+, ACN/Tris-HCl buffer pH 7.3)"
–,–,"CCNc1cc2c(cc1C)C1(c3cc(C)c(NCC)cc3O2)c2ccccc2C(=O)N1/N=C/C=C/c1ccc(N(C)C)cc1 [Rh6GD, 2-(((1E,2E)-3-(4-(dimethylamino)phenyl)allylidene)amino)-3′,6′-bis(ethylamino)-2′,7′-dimethylspiro[isoindoline-1,9′-xanthen]-3-one]",weak fluorescence,marked decrease in fluorescent intensity,significant increase in fluorescent signals,significantly decrease in fluorescence signal,–
0.173,3200,"CCN(CC)c1ccc2c(c1)Oc1cc(N(CC)CC)ccc1C21c2ccccc2C(=O)N1CC/N=C(\C)c1cccc(C(C)=O)n1 [Rh-PK, (E)-2-(2-((1-(6-acetylpyridin-2-yl)ethylidene)amino)ethyl)-3′,6′-bis(diethylamino)spiro[isoindoline-1,9′-xanthen]-3-one]",–,–,–,–,~12 fold and > 12 fold
